Results: US6486350B1, “Biological reagents and methods for determining the mechanism in the generation of β-amyloid peptide” (Elan Pharmaceuticals Inc., priority 1998, dated 2002)
One block for each compound: values may come before it.

Key:
[1] = test system: low affinity Compound 1 site, membranes obtained from 293 cells; assay: Competition with 3H-Compound 1 binding to membranes from 293 cells, low affinity site; settings: 293 cell membranes, n=2
Description: (§1) The compound of Example 28 (Compound 3) was also tested. The high affinity ^3H-N-[8-N′-((2-(R/S)-hydroxy-2-(3,5-difluorophenyl)-acetyl-L-alaninyl)-L-phenylglycine)-3,6-dioxaoctyl]-4,4-difluoro-5,7-dimethyl-4-bora-3α,4α-diaza-s-indacene-3-propionamide (Compound 3) binding site mediates the Aβ lowering activity of Compound 1, whereas the low affinity site is irrelevant to Aβ lowering. […] This wide separation in high and low affinity Ki's (7741.5; n=2) affords a wide window of concentrations of Compound 3 where binding of the compound is almost exclusively to the high affinity Compound 1 site.

[2] = test system: high affinity Compound 1 (Aβ lowering) site on SWE293 cells; assay: Flow cytometry labelling of SWE293 cells with Compound 3; assay type: cell-based
Description: SWE293 cells were successfully labelled with 5 nM of Compound 3 for flow cytometry analysis (excitation 488 nm, emission 510 (+/−10) nm) to give a four fold increase in fluorescence intensity over background unlabeled cells, consistent with the binding site being in relatively low abundance. At 5 nM concentration this compound only labels the high affinity Compound 1 (Aβ lowering) site. In the presence of 1 μM 5-(S)-[N′-((S)-3,5-Difluorophenyl-α-hydroxyacetyl)-L-alaninyl]amino-7-methyl-5,7-dihydro-6H-dibenz[b,d]azepin-6-one (Example 29), (which is sufficient to completely displace all specifically bound Compound of Example 28 at >>5 nM)), the signal was reduced by 20% (p<0.001), after background subtraction. Compound 3 is obviously a very hydrophobic molecule (log P>3), and the non displaceable signal is almost certainly due to non-specific partitioning into cell membranes.

[3] = test system: Aβ production in 293 cells; assay: Inhibition of Aβ production in 293 cells; assay type: cell-based; settings: Homo sapiens, HEK293, whole cell
[4] = log P; assay type: physicochemical
[5] = molecular target: high affinity Compound 1 binding site (Aβ lowering) in 293 membranes (Homo sapiens, UniProt P49768); assay: Saturation binding of 3H-Compound 1 in 293 membranes, high affinity site
Description: (§2) The pharmacological profile of ^3H-5-(S)-(N′-((S)-(+)-2-Hydroxy-3-methylbutyryl)-L-alaninyl)amino-7-methyl-5,7-dihydro-6H-dibenz[b,d]azepin-6-one (Compound 1 from Example 30) has been studied in 293 membranes. There are two distinct binding components in the membrane preparations. Saturation binding analysis utilizing 0-50 pM and 0-150 nM ^3H-Compound 1 reveal two sites (KD1=52.7 pM [Bmax1=710 fmol/mg protein]; KD2=32.5 nM [Bmax2=34.4 pmol/mg protein]).
as §1

[6] = molecular target: low affinity Compound 1 site in 293 membranes; assay: Saturation binding of 3H-Compound 1 in 293 membranes, low affinity site; settings: 0-150 nM 3H-Compound 1, 293 membranes, read-out: KD2
Description: as §2, §1

logP [4]: > 3
Compound: Cc1cc(C)n2c1C=C1C=CC(CCC(=O)NCCOCCOCCNC(=O)C(NC(=O)C(C)NC(=O)C(O)c3cc(F)cc(F)c3)c3ccccc3)=[N+]1[B-]2(F)F (racemic) [Compound 3, N-[8-N′-((2-(R/S)-hydroxy-2-(3,5-difluorophenyl)-acetyl-L-alaninyl)-L-phenylglycinyl)amino-3,6-dioxaoctyl]-4,4-difluoro-5,7-dimethyl-4-bora-3α,4α-diaza-s-indacene-3-propionamide]
Ki [1]: 574 nM
increase in fluorescence intensity over background unlabeled cells ([2]; SWE293 cells labelled with 5 nM, flow cytometry, excitation 488 nm, emission 510 (+/−10) nm): four fold
IC50 [3]: 0.585 nM

Bmax1 [5]: 710 fmol/mg protein
Kd [6]: 32.5 nM
Compound: CC(C)[C@H](O)C(=O)N[C@@H](C)C(=O)NC1C(=O)N(C)c2ccccc2-c2ccccc21 (stereo partly drawn) [Compound 1, 5-(S)-(N′-((S)-(+)-2-Hydroxy-3-methylbutyryl)-L-alaninyl)amino-7-methyl-5,7-dihydro-6H-dibenz[b,d]azepin-6-one]

Compound: C[C@H](NC(=O)[C@@H](O)c1cc(F)cc(F)c1)C(=O)N[C@@H]1C(=O)N(C)c2ccccc2-c2ccccc21 [Example 29, 5-(S)-[N′-((S)-3,5-Difluorophenyl-α-hydroxyacetyl)-L-alaninyl]amino-7-methyl-5,7-dihydro-6H-dibenz[b,d]azepin-6-one]
reduction of Compound 3 fluorescence signal ([2]; 1 μM competitor, SWE293 cells labelled with 5 nM Compound 3, after background subtraction, p<0.001): 20%
